In PubChem BioAssay (NCI):
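Interpolation was linear, between the two tested concentrations surrounding the appropriate level; five concentrations were tested over 48 hours in 96-well plates. The concentration for 50% growth inhibition is given as GI50. TGI: total growth inhibition.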

Key:
Test in all cases: NCI-60 cell line screen, 48 h
ACHN renal = system: ACHN renal
IGROV1 ovarian = system: IGROV1 ovarian
OVCAR-5 ovarian = system: OVCAR-5 ovarian
K-562 leukemia = system: K-562 leukemia
SR leukemia = system: SR leukemia
U251 CNS = system: U251 CNS
HCT-15 colon = system: HCT-15 colon
SW-620 colon = system: SW-620 colon
EKVX NSCLC = system: EKVX NSCLC
RPMI-8226 leukemia = system: RPMI-8226 leukemia
MOLT-4 leukemia = system: MOLT-4 leukemia
HOP-92 NSCLC = system: HOP-92 NSCLC
NCI/ADR-RES ovarian = system: NCI/ADR-RES ovarian
UO-31 renal = system: UO-31 renal
MALME-3M melanoma = system: MALME-3M melanoma
SF-539 CNS = system: SF-539 CNS
SF-295 CNS = system: SF-295 CNS
NCI-H23 lung = system: NCI-H23 lung
PC-3 prostate = system: PC-3 prostate
HL-60(TB) leukemia = system: HL-60(TB) leukemia
TK-10 renal = system: TK-10 renal
HT29 colon = system: HT29 colon
CCRF-CEM leukemia = system: CCRF-CEM leukemia
UACC-257 melanoma = system: UACC-257 melanoma
SF-268 CNS = system: SF-268 CNS
HCC-2998 colon = system: HCC-2998 colon
SK-MEL-2 melanoma = system: SK-MEL-2 melanoma
BT-549 breast = system: BT-549 breast
HCT-116 colon = system: HCT-116 colon
MDA-N = system: MDA-N
OVCAR-8 ovarian = system: OVCAR-8 ovarian
MDA-MB-231 breast = system: MDA-MB-231 breast
786-0 renal = system: 786-0 renal
SNB-19 CNS = system: SNB-19 CNS
OVCAR-3 ovarian = system: OVCAR-3 ovarian
OVCAR-4 ovarian = system: OVCAR-4 ovarian
MCF7 breast = system: MCF7 breast
KM12 colon = system: KM12 colon
CAKI-1 renal = system: CAKI-1 renal
HOP-62 NSCLC = system: HOP-62 NSCLC
DU-145 prostate = system: DU-145 prostate
T-47D breast = system: T-47D breast
HS 578T breast = system: HS 578T breast
A549 NSCLC = system: A549 NSCLC
NCI-H226 lung = system: NCI-H226 lung
SK-MEL-28 melanoma = system: SK-MEL-28 melanoma
M14 melanoma = system: M14 melanoma
UACC-62 melanoma = system: UACC-62 melanoma
NCI-H460 lung = system: NCI-H460 lung
SNB-75 CNS = system: SNB-75 CNS
SK-MEL-5 melanoma = system: SK-MEL-5 melanoma
COLO 205 colon = system: COLO 205 colon
MDA-MB-435 = system: MDA-MB-435
A498 renal = system: A498 renal
SN12C renal = system: SN12C renal
NCI-H522 lung = system: NCI-H522 lung
SK-OV-3 ovarian = system: SK-OV-3 ovarian
RXF 393 renal = system: RXF 393 renal
LOX IMVI melanoma = system: LOX IMVI melanoma

c1cc(-c2ccc(-c3nc4ccc(C5=NCCN5)cc4s3)s2)ccc1C1=NCCN1
TGI (ACHN renal): 1.28 µM | TGI (IGROV1 ovarian): 2.52 µM | TGI (OVCAR-5 ovarian): 0.327 µM | TGI (K-562 leukemia): 4 µM | TGI (SR leukemia): 1.43 µM | TGI (U251 CNS): 0.821 µM | TGI (HCT-15 colon): 16.6 µM | TGI (SW-620 colon): > 100 µM | TGI (EKVX NSCLC): 2.69 µM | TGI (RPMI-8226 leukemia): 1.22 µM | TGI (MOLT-4 leukemia): 0.879 µM | TGI (HOP-92 NSCLC): 1.08 µM | TGI (NCI/ADR-RES ovarian): > 100 µM | TGI (UO-31 renal): 2.61 µM | TGI (MALME-3M melanoma): 1.4 µM | TGI (SF-539 CNS): 0.319 µM | TGI (SF-295 CNS): 0.249 µM | TGI (NCI-H23 lung): > 100 µM | TGI (PC-3 prostate): 2.27 µM | TGI (HL-60(TB) leukemia): 2.08 µM | TGI (TK-10 renal): 2.42 µM | TGI (HT29 colon): 2.08 µM | TGI (CCRF-CEM leukemia): 0.574 µM | TGI (UACC-257 melanoma): > 100 µM | TGI (SF-268 CNS): 0.662 µM | TGI (HCC-2998 colon): 0.162 µM | TGI (SK-MEL-2 melanoma): 2.96 µM | TGI (BT-549 breast): 5.27 µM | TGI (HCT-116 colon): 1.35 µM | TGI (MDA-N): 1 µM | TGI (OVCAR-8 ovarian): 0.801 µM | TGI (MDA-MB-231 breast): 1.49 µM | TGI (786-0 renal): 0.272 µM | TGI (SNB-19 CNS): 9.38 µM | TGI (OVCAR-3 ovarian): 5.25 µM | TGI (OVCAR-4 ovarian): 0.5 µM | TGI (MCF7 breast): 0.255 µM | TGI (KM12 colon): 1.67 µM | TGI (CAKI-1 renal): 4.71 µM | TGI (HOP-62 NSCLC): 0.257 µM | TGI (DU-145 prostate): 0.677 µM | TGI (T-47D breast): 1.42 µM

Cc1cc(C(=O)Nc2n[nH]c3ccccc23)n[nH]1
GI50 (ACHN renal): > 100 µM | TGI (ACHN renal): > 100 µM | GI50 (HS 578T breast): > 100 µM | TGI (HS 578T breast): > 100 µM | GI50 (IGROV1 ovarian): 32.7 µM | TGI (IGROV1 ovarian): > 100 µM | GI50 (OVCAR-5 ovarian): 67.9 µM | TGI (OVCAR-5 ovarian): > 100 µM | GI50 (K-562 leukemia): > 100 µM | TGI (K-562 leukemia): > 100 µM | GI50 (SR leukemia): 80.6 µM | TGI (SR leukemia): > 100 µM | GI50 (U251 CNS): > 100 µM | TGI (U251 CNS): > 100 µM | GI50 (HCT-15 colon): > 100 µM | TGI (HCT-15 colon): > 100 µM | GI50 (SW-620 colon): > 100 µM | TGI (SW-620 colon): > 100 µM | GI50 (A549 NSCLC): > 100 µM | TGI (A549 NSCLC): > 100 µM | GI50 (EKVX NSCLC): > 100 µM | TGI (EKVX NSCLC): > 100 µM | GI50 (RPMI-8226 leukemia): > 100 µM | TGI (RPMI-8226 leukemia): > 100 µM | GI50 (MOLT-4 leukemia): > 100 µM | TGI (MOLT-4 leukemia): > 100 µM | GI50 (HOP-92 NSCLC): > 100 µM | TGI (HOP-92 NSCLC): > 100 µM | GI50 (NCI-H226 lung): > 100 µM | TGI (NCI-H226 lung): > 100 µM | GI50 (NCI/ADR-RES ovarian): > 100 µM | TGI (NCI/ADR-RES ovarian): > 100 µM | GI50 (UO-31 renal): 50.4 µM | TGI (UO-31 renal): > 100 µM | GI50 (MALME-3M melanoma): > 100 µM | TGI (MALME-3M melanoma): > 100 µM | GI50 (SF-539 CNS): > 100 µM | TGI (SF-539 CNS): > 100 µM | GI50 (SK-MEL-28 melanoma): > 100 µM | TGI (SK-MEL-28 melanoma): > 100 µM | GI50 (SF-295 CNS): > 100 µM | TGI (SF-295 CNS): > 100 µM | GI50 (NCI-H23 lung): > 100 µM | TGI (NCI-H23 lung): > 100 µM | GI50 (M14 melanoma): > 100 µM | TGI (M14 melanoma): > 100 µM | GI50 (PC-3 prostate): > 100 µM | TGI (PC-3 prostate): > 100 µM | GI50 (HL-60(TB) leukemia): 75.2 µM | TGI (HL-60(TB) leukemia): > 100 µM | GI50 (UACC-62 melanoma): > 100 µM | TGI (UACC-62 melanoma): > 100 µM | GI50 (TK-10 renal): > 100 µM | TGI (TK-10 renal): > 100 µM | GI50 (HT29 colon): > 100 µM | TGI (HT29 colon): > 100 µM | GI50 (CCRF-CEM leukemia): > 100 µM | TGI (CCRF-CEM leukemia): > 100 µM | GI50 (NCI-H460 lung): > 100 µM | TGI (NCI-H460 lung): > 100 µM | GI50 (UACC-257 melanoma): > 100 µM | TGI (UACC-257 melanoma): > 100 µM | GI50 (SNB-75 CNS): 62.6 µM | TGI (SNB-75 CNS): > 100 µM | GI50 (SK-MEL-5 melanoma): > 100 µM | TGI (SK-MEL-5 melanoma): > 100 µM | GI50 (COLO 205 colon): > 100 µM | TGI (COLO 205 colon): > 100 µM | GI50 (SF-268 CNS): > 100 µM | TGI (SF-268 CNS): > 100 µM | GI50 (MDA-MB-435): > 100 µM | TGI (MDA-MB-435): > 100 µM | GI50 (A498 renal): > 100 µM | TGI (A498 renal): > 100 µM | GI50 (SN12C renal): > 100 µM | TGI (SN12C renal): > 100 µM | GI50 (NCI-H522 lung): > 100 µM | TGI (NCI-H522 lung): > 100 µM | GI50 (HCC-2998 colon): 50.6 µM | TGI (HCC-2998 colon): > 100 µM | GI50 (SK-MEL-2 melanoma): > 100 µM | TGI (SK-MEL-2 melanoma): > 100 µM | GI50 (SK-OV-3 ovarian): > 100 µM | TGI (SK-OV-3 ovarian): > 100 µM | GI50 (BT-549 breast): > 100 µM | TGI (BT-549 breast): > 100 µM | GI50 (HCT-116 colon): > 100 µM | TGI (HCT-116 colon): > 100 µM | GI50 (OVCAR-8 ovarian): > 100 µM | TGI (OVCAR-8 ovarian): > 100 µM | GI50 (MDA-MB-231 breast): > 100 µM | TGI (MDA-MB-231 breast): > 100 µM | GI50 (786-0 renal): > 100 µM | TGI (786-0 renal): > 100 µM | GI50 (RXF 393 renal): > 100 µM | TGI (RXF 393 renal): > 100 µM | GI50 (LOX IMVI melanoma): > 100 µM | TGI (LOX IMVI melanoma): > 100 µM | GI50 (SNB-19 CNS): > 100 µM | TGI (SNB-19 CNS): > 100 µM | GI50 (OVCAR-3 ovarian): > 100 µM | TGI (OVCAR-3 ovarian): > 100 µM | GI50 (OVCAR-4 ovarian): > 100 µM | TGI (OVCAR-4 ovarian): > 100 µM | GI50 (MCF7 breast): > 100 µM | TGI (MCF7 breast): > 100 µM | GI50 (KM12 colon): 28.9 µM | TGI (KM12 colon): > 100 µM | GI50 (CAKI-1 renal): 90.5 µM | TGI (CAKI-1 renal): > 100 µM | GI50 (HOP-62 NSCLC): > 100 µM | TGI (HOP-62 NSCLC): > 100 µM | GI50 (DU-145 prostate): > 100 µM | TGI (DU-145 prostate): > 100 µM | GI50 (T-47D breast): > 100 µM | TGI (T-47D breast): > 100 µM
